Experimental data reported in patent publication US6544750B1, “Peptide analogs as selective inhibitors of thrombin activation of protease activated receptor 1” (Thromgen, Inc., priority 1999, dated 2003).
Ends that are not written are not given here.

Columns and labels:
[1] = test system: platelets (platelet-rich plasma); experiment: γ-thrombin-induced platelet aggregation in platelet-rich plasma; type: cell-based, human; details: for Fold Increase in Aggregation Inhibition over RPPGF: RGDO4C sublibrary, γ-thrombin, compared to RPPGF at 0.2 mM
Procedure: Fresh whole blood was collected and mixed with 0.013 M sodium citrate and platelet-rich plasma was prepared according to the method of Meloni et al., J. Biol. Chem. 266, 6786 (1991). Platelet-rich plasma with a normalized platelet count between 2-2.5×10^8 platelets/ml was added to a cuvette of an aggregometer (Chronlog Corp., Havertown, Pa.), standardized using the protocol of Meloni et al., supra. Peptides to be examined were added to the cuvette and the mixture stabilized for a few moments. Once the baseline was stabilized, γ-thrombin (10-70 NM) (Haematologic Technologies, Essex Junction, Vt.) was added to determine the minimal concentration of the agonist necessary to achieve full platelet aggregation. All investigations with peptides were performed using threshold concentrations of γ-thrombin. Aggregation was allowed to proceed for 5 minutes before stopping. When ADP-induced platelet aggregation studies were performed, 1-5 μM ADP (Sigrna) was added to the cuvette containing platelet-rich plasma.

[2] = test system: Normal human lung fibroblasts (NHLF); experiment: α-thrombin-induced calcium mobilization in fibroblasts (fura-2); type: cell-based; details: 0.2 mM peptide; for Ca2+ % Inhibition At 0.2 mM Peptide: thrombin-induced calcium mobilization in fibroblasts
Procedure: The second assay developed to assess peptides from the combinatorial libraries uses inhibition of α-thrombin-induced calcium mobilization in fibroblasts. Normal human lung fibroblasts (NHLF) were purchased from Clonetics, San Diego, Calif., an affiliate of Bio-Wittaker, Walkersville, Md. The cytoplasmic free Ca^2+ concentration ([Ca^2+]i) was measured using the fluorescent Ca^2+ indicator fura-2 (Molecular Probes, Inc., Eugene, Oreg.). Suspension of fibroblasts in Hepes-Tyrode's buffer were loaded with fura-2 by incubation at 37° C. with 2 μM fura-2/acetoxymethyl ester for 45 minutes according to the method of Rasmussen et al., J. Biol. Chem. 268, 14322 (1993). The labeled fibroblasts were separated from excess probe by washing by centrifugation at 1000 rpm (180×g). Aliquots of the labeled fibroblasts were transferred into a quartz cuvette with a magnetic stirrer, which was then placed in a thennostatically controlled chamber at 37° C. in a fluorescence spectrophotometer (Perkin-Elmer LS50B spectrofluorometer, Chicago, Ill.). Reagents, test peptide (SEQ ID NO: 5) (from 0.2 mM to effective lower concentration), and α-thrombin (2-4 nM), were sequentially added directly to the cuvette. The excitation wavelengths varied between 340 and 380 nm. Fluorescence was measured by recording emitted light at 510 nm as reported by Fisher et al., Mol Pharm. 35, 195 (1989). The minimum emission was determined on a solubilized fibroblast sample in the presence of 10 mM EDTA; maximum emission was determined on the same sample with 10 mM Ca^2+ added. The intrafibroblast free Ca^2+ concentration was calculated by the method of Grykiewicz et al., J. Biol. Chem. 260, 3440 (1985). The ratio of the fluorescence readings was calculated as R=340/380 nm and processed according to the equation [Ca^2+]i=KD((R−Rmim)/Rmax−R)) (Sf2/Sb2) to determine the intrafibroblast free Ca^2+ concentration. The KD for fura-2 was assumed to be 224 nM. Rmax and Rmin are the maximum and minimum fluorescence ratios measured at the end of the experiment, respectively; Sf2 and Sb2 are the fluorescence values at 380 nm in the absence and presence of saturating [Ca 2+], respectively. The reaction was monitored for 3-5 minutes. […] In FIG. 4, peptide RGDWC (SEQ ID NO: 20) at 0.2 mM inhibited 31% of 4 nM α-thrombin-induced Ca^2+ mobilization in fibroblasts.

[3] = biological target: biotin-NAT12 (NATLDPRSFLLR, peptide from PAR1) (Homo sapiens, UniProt P25116); experiment: Biotin-NAT12 binding assay to peptides coupled to microtiter plates; details: relative to RPPGF given arbitrary binding level of 1
Procedure: A third assay was developed to ascertain the ability of biotin-NAT12 (NATLDPRSFLLR, SEQ ID NO: 41) to directly bind to peptides linked to microtiter plates. In this assay, peptide analogs were linked to microtiter plate cuvette wells by incubation of the peptide in 0.1 M Na2CO3, pH 9.6 buffer overnight at 4° C. After coupling the peptide to the cuvette well, the wells were dumped and each well was blocked with 1% bovine serun albumin in 0.01 M Na3PO4, 0.15 M NaCl, at pH 7.4. After incubation for 1 hour, the wells were dumped and washed three times with PBS-Tween. The wells were then incubated with biotin-NAT12. The amount of biotin-NAT12 bound was determined by adding streptavidin-peroxidase followed by adding turbo TMB (Pierce).
In decreasing order of binding level, these peptides include: RGKSC, RGKMC, RGKHC, RGKKC, RGKFC, RGKLC, RGKWC, and RGKVC (SEQ ID NOS 18, 7, 13, 14, 11, 1, 5 and 19, respectively). […] The best to least RGDO4C (SEQ ID NO: 44) peptides to bind biotin-NAT12 listed in Table VI are: RGDSC, RGDGC, RGDQC, RGDEC, RGDIC, RGDPC, RGDDC, and RGDYC (SEQ ID NOS 34, 28, 23, 22, 36, 38, 27 and 35, respectively). A solid phase peptide-peptide binding assay was used to determine biotin-NAT12 binding to library peptides. Test peptides in 0.1 M Na2CO3, pH 9.6 buffer, at 10 μg/well in 50 μl volume, were coupled to microtiter plate wells by overnight incubation at 4° C. After incubation, the contents of the wells were discarded and the wells were washed with a pH 7.4 buffer containing 0.01 M Na3PO4, 0.15 M NaCl, and 0.01% Tween 20. After blocking each well with 1% radioimmunoassay grade bovine serum albumin, the linked peptides were incubated with 100 μl of 100 μM biotin-NAT12 for 1 hour at 37° C. After incubation, the contents of the wells were dumped and the wells were washed three times (100 μl/well each time) with the buffer identified above. Each well then was incubated with 100 μl of 2 μg/ml solution of Immuno-Pure streptoavidin horeseradish peroxidase conjugate (Pierce Chemical Co., […], Ill.) for 1 hour at room temperature. The contents of the wells were discarded and the wells were washed three times as described above. The wells were then incubated with 100 μl of peroxidase-specific fast reacting substrate, turbo-3,3′,5,5′-tetramethylbenzidine (turbo-TMB, Pierce) for 5 minutes at room temperature and the developing color reaction was stopped by the addition of 100 μof 1 M phosphoric acid. The absorbance was measured at 450 nm using a Microplate Auto Reader EL311 (Bio-Tek, Winooski, Vt.).

Substance	Fold Increase in Aggregation Inhibition over RPPGF [1]	Ca2+ % Inhibition At 0.2 mM Peptide ([2]; RGDO4C sublibrary)	Level of Binding to Biotin-NAT12 ([3]; RGDO4C sublibrary)	Ca2+ % Inhibition At 0.2 mM Peptide ([2]; RGKO4C sublibrary)	Level of Binding to Biotin-NAT12 ([3]; RGKO4C sublibrary)	further results
Arg-Gly-Asp-Trp-Cys (RGDWC-NH2) [peptide of the H-R-G-D-O4-C-NH2 sublibrary]	31.7 fold	31.9%	0.374			concentration down to which peptide inhibited γ-thrombin-induced platelet aggregation ([1]; 70 nM γ-thrombin): ≥ 25 µM; peptide concentration at which γ-thrombin-induced platelet aggregation returned ([1]; 70 nM γ-thrombin): 6.25 µM; peptide concentration that abolished (completely inhibited) γ-thrombin-induced platelet aggregation ([1]; 70 nM γ-thrombin, platelet-rich plasma): 0.2 mM; effect on thrombin-induced Ca2+ mobilization (in words) ([2]; 4 nM α-thrombin): almost had no effect; inhibition of α-thrombin-induced Ca2+ mobilization ([2]; 4 nM α-thrombin, fibroblasts): 31%
RGDAC: peptide of the H-R-G-D-O4-C-NH2 sublibrary (H-RGDAC-NH2)		11%	0.8			
RGDDC: peptide of the H-R-G-D-O4-C-NH2 sublibrary (H-RGDDC-NH2)	7.5 fold	8.9%	1.11			
RGDEC: peptide of the H-R-G-D-O4-C-NH2 sublibrary (H-RGDEC-NH2)	20 fold	1.96%	1.28			
RGDFC: peptide of the H-R-G-D-O4-C-NH2 sublibrary (H-RGDFC-NH2)	25 fold	30.3%	0.671			
RGDGC: peptide of the H-R-G-D-O4-C-NH2 sublibrary (H-RGDGC-NH2)	7.5 fold	9.9%	1.39			
RGDHC: peptide of the H-R-G-D-O4-C-NH2 sublibrary (H-RGDHC-NH2)	14.8 fold	9.9%	0.759			
RGDIC: peptide of the H-R-G-D-O4-C-NH2 sublibrary (H-RGDIC-NH2)	3.8 fold	9.3%	1.22			
RGDKC: peptide of the H-R-G-D-O4-C-NH2 sublibrary (H-RGDKC-NH2)	7.5 fold	28.1%	0.67			
RGDLC: peptide of the H-R-G-D-O4-C-NH2 sublibrary (H-RGDLC-NH2)	7.5 fold	0%	0.98			
RGDMC: peptide of the H-R-G-D-O4-C-NH2 sublibrary (H-RGDMC-NH2)	15 fold	26.2%	0.87			
RGDNC: peptide of the H-R-G-D-O4-C-NH2 sublibrary (H-RGDNC-NH2)	5 fold	44.3%	0.739			
RGDPC: peptide of the H-R-G-D-O4-C-NH2 sublibrary (H-RGDPC-NH2)		4.13%	1.12			
RGDQC: peptide of the H-R-G-D-O4-C-NH2 sublibrary (H-RGDQC-NH2)	15.8 fold	8.45%	1.32			
RGKAC: peptide of the H-R-G-K-O4-C-NH2 sublibrary (H-RGKAC-NH2)				5.2%	0.689	
RGKDC: peptide of the H-R-G-K-O4-C-NH2 sublibrary (H-RGKDC-NH2)				26.7%	0.82	
RGKEC: peptide of the H-R-G-K-O4-C-NH2 sublibrary (H-RGKEC-NH2)				13.8%	0.926	
RGKFC: peptide of the H-R-G-K-O4-C-NH2 sublibrary (H-RGKFC-NH2)				2.74%	1.5	
RGKGC: peptide of the H-R-G-K-O4-C-NH2 sublibrary (H-RGKGC-NH2)				12.4%	1.0	
RGKHC: peptide of the H-R-G-K-O4-C-NH2 sublibrary (H-RGKHC-NH2)				31.2%	2.1	
RGKKC: peptide of the H-R-G-K-O4-C-NH2 sublibrary (H-RGKKC-NH2)				38.9%	1.8	
RGKNC: peptide of the H-R-G-K-O4-C-NH2 sublibrary (H-RGKNC-NH2)				0%	1.2	
RGKPC: peptide of the H-R-G-K-O4-C-NH2 sublibrary (H-RGKPC-NH2)				31.13%	1.2	
RGKQC: peptide of the H-R-G-K-O4-C-NH2 sublibrary (H-RGKQC-NH2)				28%	0.374	
RGKSC: peptide of the H-R-G-K-O4-C-NH2 sublibrary (H-RGKSC-NH2)				0.01%	2.2	
RGKVC: peptide of the H-R-G-K-O4-C-NH2 sublibrary (H-RGKVC-NH2)				17.3%	1.2	
